Results on 26 compounds are retold here after patent US4699924A, “Skin treatment composition” (priority 1983, dated 1987).

Series [1] in a line: Cloud point temperature of a 0.025M aqueous solution of polyoxyethylene(8)nonylphenyl ether with 5% by weight additive. The class given is physicochemical. As to conditions: for Elevation of cloud point temperature: control 33.5 °C.; for Effect on the cloud point temperature of nonionic surfactants: screening of non-electrolytes, in words. The protocol: An activity enhancer is accordingly defined as a non-electrolyte which is capable, at a concentration of 5% by weight of increasing the cloud point temperature of a 0.025M aqueous solution of polyoxyethylene(8)nonylphenyl ether by at least 10° C. Preferably the activity enhancer is one which is capable of increasing the cloud point temperature by at least 15° C., most preferably by at least 20° C.
It should be explained that the "cloud point" is a measure of the inverse solubility of a nonionic surfactant with temperature and can be determined by heating a standard clear aqueous solution of the nonionic surfactant until the solution becomes visibly cloudy and then measuring the temperature.
The cloud point temperature can conveniently be determined automatically using the equipment and method described by Baum et al in Mat. Res. Std. 4 26 (1964).
Examples of suitable compounds functioning as activity enhancers, together with the respective elevated cloud point temperature obtained in each case when using the standard test defined hereinbefore are listed below in Table 1.

[2] abbreviates: Table 2, compound which is not an activity enhancer, 5% by weight.
[3] abbreviates: Table 1, activity enhancer 5% by weight, 0.025 M polyoxyethylene(8)nonylphenyl ether.
Setting [4] is: Table 1, activity enhancer 5% by weight, in °C.

Counter-ions that a name gives are not always drawn. Like-named read-outs stand apart in the source and are kept apart here.

Turning to `CC[C@H]1OC(=O)[C@H](C)[C@@H](O[C@H]2C[C@@](C)(OC)[C@@H](O)[C@H](C)O2)[C@H](C)[C@@H](O[C@@H]2O[C@H](C)C[C@H](N(C)C)[C@H]2O)[C@](C)(O)C[C@@H](C)C(=O)[C@H](C)[C@@H](O)[C@]1(C)O` [erythromycin, reference compound], the Log partition coefficient (octanol/water) turned out to be 1.26. Consider `CC(O)CCO` (centres unmarked) [Butan-1,3-diol], for which, in series [1] (setting [2]), the Cloud point temperature amounted to 41.5 °C and the “Elevation of cloud point temperature” value was 8.0 °C. `CCN(CC)CCOC(=O)c1ccc(N)cc1` [procaine, reference compound] had a Log partition coefficient (octanol/water) of 1.87. The same measure, in the same setting: under `O=C(O)CCCCCCCC(=O)O` [azelaic acid, reference compound] stands 1.57. As for `CC(C)O` [Propan-2-ol], the Cloud point temperature in series [1] (setting [3]) amounted to 56.0 °C. Also, the “Elevation of cloud point temperature” value in series [1] (setting [4]) is on record as 22.5. Take `CCOC(=O)C(C)O` (centres unmarked) [Ethyl-2hydroxypropanoate]: the Cloud point temperature in series [1] (setting [3]) amounted to 52.1 °C. Besides, the “Elevation of cloud point temperature” value in series [1] (setting [4]) is given as 18.6. In turn, `CCC1(c2ccccc2)C(=O)NC(=O)NC1=O` [5-ethyl-5-phenyl barbituric acid, reference compound] came in with a Log partition coefficient (octanol/water at 20° C.) of 1.42. Turning to `CCOC(=O)CC(O)(CC(=O)OCC)C(=O)OCC` [triethyl citrate], under “octanol/water at 20° C.”, the Log partition coefficient is 0.67. `CC1(C)SC2C(NC(=O)C(O)c3ccccc3)C(=O)N2C1C(=O)O` (stereo not drawn) [α-hydroxy benzyl penicillin] came in with a Log partition coefficient (octanol/water at 20° C.) of 1.40.

`NS(=O)(=O)c1ccc([N+](=O)[O-])cc1` [p-nitrobenzene sulphonamide] showed a Log partition coefficient (octanol/water at 20° C.) of 0.64. For `OCCCCO` [Butan-1,4-diol], in series [1] (setting [3]), the Cloud point temperature was found to be 45.0 °C. The “Elevation of cloud point temperature” value in series [1] (setting [4]) was 11.5.

For the compound `Cc1ccc(S(N)(=O)=O)cc1` [p-methylbenzene sulphonamide], the Log partition coefficient (octanol/water at 20° C.) worked out at 0.82. In the case of `OC1CCCCC1` [Cyclohexanol], in series [1] (setting [2]), the Cloud point temperature was found to be 11.0 °C and the “Elevation of cloud point temperature” value was -22.5 °C. For the same compound, the “Effect on the cloud point temperature of nonionic surfactants” value in series [1] is “reduce the cloud point temperature”. For `COCCOCCO` [POE(2) methyl ether], the Cloud point temperature in series [1] (setting [3]) was 43.5 °C. Besides, the “Elevation of cloud point temperature” value in series [1] (setting [4]) amounted to 10.0. For `CCOCCOCCO` [POE(2) ethyl ether, polyoxyethylene(2) ethyl ether], the Cloud point temperature in series [1] (setting [3]) turned out to be 46.0 °C. Further, the “Elevation of cloud point temperature” value in series [1] (setting [4]) is 12.5. `CC(C)(C)O` [2-methyl propan-2-ol]: the Cloud point temperature in series [1] (setting [3]) amounted to 55.0 °C. The “Elevation of cloud point temperature” value in series [1] (setting [4]) was 21.5. The like results for `C1CCOC1` [Tetrahydrofuran] were, in that order, 45.0 °C and 11.5. Consider `O=C1C[C@@H]2OCC=C3CN4CC[C@]56c7ccccc7N1[C@H]5[C@H]2[C@H]3C[C@H]46` [strychnine], for which the Log partition coefficient (octanol/water) stood at 1.93.

Turning to `C1COCCO1` [1,4 Dioxane], the Cloud point temperature in series [1] (setting [3]) came to 44.0 °C. Also, in series [1] (setting [4]), the “Elevation of cloud point temperature” value is 10.5.

For the compound `Cc1ccccc1S(N)(=O)=O` [o-methylbenzene sulphonamide], the Log partition coefficient (octanol/water) turned out to be 0.84.

Under “octanol/water at 20° C.”, `NC(=O)c1cccnc1` [niacinamide, reference compound] showed a Log partition coefficient of 1.37. As for `C1COCCN1` [Morpholine], in series [1] (setting [2]), the Cloud point temperature came to 40.0 °C and the “Elevation of cloud point temperature” value came to 6.5 °C.

On to `CC(C)=O` [Acetone], for which the Cloud point temperature in series [1] (setting [3]) came out at 46.3 °C. Besides, in series [1] (setting [4]), the “Elevation of cloud point temperature” value was found to be 12.8. Consider `CCCO` [Propan-1-ol], for which the Cloud point temperature in series [1] (setting [3]) is 53.0 °C. Besides, the “Elevation of cloud point temperature” value in series [1] (setting [4]) was found to be 19.5. Take `CC(C)CO` [2-methyl propan-1-ol]: in series [1] (setting [2]), the Cloud point temperature came to 41.0 °C and the “Elevation of cloud point temperature” value turned out to be 7.5 °C. On to `OC[C@@H](O)[C@@H](O)[C@H](O)[C@@H](O)CO` [sorbitol], for which, in series [1], the “Effect on the cloud point temperature of nonionic surfactants” value was “reduce the cloud point temperature”.
